Source: patent US20060079696A1, “Substituted compounds derived from N-(benzyl)phenylacetamide, preparation and uses” (GENFIT, priority 2004, published 2006)

Molecular target: T1, ATP-dependent potassium channels (K+ATP) (Rattus norvegicus, UniProt Q09429)
T1 construct: the potassium channels derive from a rat's cerebral cortex; tissue CEREP; host or cells: rat cerebral cortex
Assay: [3H]glibenclamide binding to ATP-dependent potassium channels of rat cerebral cortex
Conditions: 1 h; 300 nM; specific displacement of [3H]glibenclamide 0.1 nM; read-out: KATP binding (300 nM)
Procedure: The results shown reflect the specific affinity of the inventive compounds on the ATP-dependent (K^+ATP) potassium channels. The specific binding measured corresponds to the difference between the total binding and the non-specific binding determined in the presence of an excess of non-marked reference ligand (glibenclamide 1 μM). The inventive compounds were tested at doses between 3 and 300 nM: the higher the percentage measured, the stronger the affinity of the compound for the ATP-dependent potassium channels.
The binding test was carried out at CEREP (Celle L'Evescault, France (86)) according to a protocol inspired by Angel et al. (Angel and Bidet 1991): the potassium channels derive from a rat's cerebral cortex and the reference compound is [^3H]glibenclamide at 0.1 nM. The protocol consists of incubation at 22° C. for one hour.

T1 sequence (Q09429 whole entry): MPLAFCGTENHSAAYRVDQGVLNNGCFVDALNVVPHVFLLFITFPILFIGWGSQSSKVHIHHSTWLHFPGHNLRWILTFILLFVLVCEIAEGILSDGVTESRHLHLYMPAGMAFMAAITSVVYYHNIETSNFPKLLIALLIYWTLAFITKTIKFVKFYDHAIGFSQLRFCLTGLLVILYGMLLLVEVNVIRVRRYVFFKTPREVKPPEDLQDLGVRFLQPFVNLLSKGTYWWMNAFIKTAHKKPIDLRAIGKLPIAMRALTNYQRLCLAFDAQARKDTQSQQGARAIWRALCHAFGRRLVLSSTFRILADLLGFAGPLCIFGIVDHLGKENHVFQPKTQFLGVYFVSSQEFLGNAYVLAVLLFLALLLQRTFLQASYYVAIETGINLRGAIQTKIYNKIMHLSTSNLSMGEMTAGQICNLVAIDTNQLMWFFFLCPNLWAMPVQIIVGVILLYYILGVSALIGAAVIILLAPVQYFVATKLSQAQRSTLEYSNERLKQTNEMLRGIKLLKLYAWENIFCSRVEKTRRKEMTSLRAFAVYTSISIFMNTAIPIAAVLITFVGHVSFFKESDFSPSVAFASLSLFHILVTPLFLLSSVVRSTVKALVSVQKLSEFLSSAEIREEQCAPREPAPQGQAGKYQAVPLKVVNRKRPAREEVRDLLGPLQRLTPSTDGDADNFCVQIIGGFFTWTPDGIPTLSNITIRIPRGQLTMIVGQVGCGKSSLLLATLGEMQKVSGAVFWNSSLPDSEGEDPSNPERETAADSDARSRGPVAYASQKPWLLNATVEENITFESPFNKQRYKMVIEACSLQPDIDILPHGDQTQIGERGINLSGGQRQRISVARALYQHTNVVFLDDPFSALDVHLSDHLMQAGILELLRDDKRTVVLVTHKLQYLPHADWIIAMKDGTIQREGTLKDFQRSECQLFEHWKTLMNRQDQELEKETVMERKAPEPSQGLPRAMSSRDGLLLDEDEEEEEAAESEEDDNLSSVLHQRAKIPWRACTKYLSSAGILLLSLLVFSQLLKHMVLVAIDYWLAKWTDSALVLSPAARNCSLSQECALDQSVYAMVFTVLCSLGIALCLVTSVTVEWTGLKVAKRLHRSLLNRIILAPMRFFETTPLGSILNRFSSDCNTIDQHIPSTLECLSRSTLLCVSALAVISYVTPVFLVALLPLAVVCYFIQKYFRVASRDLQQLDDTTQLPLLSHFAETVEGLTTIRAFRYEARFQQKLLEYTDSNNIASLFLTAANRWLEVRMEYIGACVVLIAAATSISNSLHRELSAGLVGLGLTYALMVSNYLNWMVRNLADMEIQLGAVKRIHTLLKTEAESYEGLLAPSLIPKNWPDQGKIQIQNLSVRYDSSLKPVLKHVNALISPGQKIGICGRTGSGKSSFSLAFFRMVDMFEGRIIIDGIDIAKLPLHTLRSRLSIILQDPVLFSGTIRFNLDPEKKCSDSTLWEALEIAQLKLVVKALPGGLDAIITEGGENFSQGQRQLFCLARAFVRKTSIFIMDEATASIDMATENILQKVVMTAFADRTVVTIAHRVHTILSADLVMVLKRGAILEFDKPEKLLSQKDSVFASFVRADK
T1 sequence (P70673 whole entry partner): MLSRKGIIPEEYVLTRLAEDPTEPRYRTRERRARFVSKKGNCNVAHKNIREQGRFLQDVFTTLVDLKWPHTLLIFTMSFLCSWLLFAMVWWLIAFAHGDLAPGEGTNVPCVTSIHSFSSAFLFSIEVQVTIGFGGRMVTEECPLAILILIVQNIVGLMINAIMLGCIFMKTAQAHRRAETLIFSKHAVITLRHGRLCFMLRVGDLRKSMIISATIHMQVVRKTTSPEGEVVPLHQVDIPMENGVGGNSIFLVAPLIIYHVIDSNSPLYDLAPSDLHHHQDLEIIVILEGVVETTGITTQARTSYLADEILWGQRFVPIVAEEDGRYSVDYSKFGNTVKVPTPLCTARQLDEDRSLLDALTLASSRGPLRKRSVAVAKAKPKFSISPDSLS

inhibition at 0.3 µM [%]	Structure (SMILES)
76	CC(C)CC(NC(=O)Cc1ccc(OC(C)(C)C(=O)O)cc1)c1cc(Br)ccc1N1CCCCC1 (stereo not drawn) [Compound 37, 2-[4-[1-(3-methyl-1-(2-(1-piperidinyl)-5-(bromo)phenyl)butyl)aminocarbonylmethyl]phenoxy]-2-methylpropanoic acid]
48	CC(C)CC(NC(=O)Cc1ccc(OC(C)(C)C(=O)O)cc1)c1cccc(N2CCCCC2)c1 (stereo not drawn) [Compound 8, 2-[4-[1-(3-methyl-1-(3-(1-piperidinyl)phenyl)butyl)aminocarbonylmethyl]phenoxy]-2-methylpropanoic acid]
91	CCC(Oc1ccc(CC(=O)NC(CC(C)C)c2ccccc2N2CCCCC2)cc1)C(=O)O (stereo not drawn) [Compound 25, 2-[4-[1-(3-methyl-1-(2-(1-piperidinyl)phenyl)butyl)aminocarbonylmethyl]phenoxy]butanoic acid]
88	CC(C)CC(NC(=O)Cc1ccc(OC(C)(C)C(=O)O)cc1)c1cc(Cl)ccc1N1CCCCC1 (stereo not drawn) [Compound 22, 2-[4-[1-(3-methyl-1-(2-(1-piperidinyl)-5-(chloro)phenyl)butyl)aminocarbonylmethyl]phenoxy]-2-methylpropanoic acid]
48	CCCCC(NC(=O)Cc1ccc(OC(C)(C)C(=O)O)cc1)c1ccccc1O (stereo not drawn) [Compound 44, 2-[4-[1-(1-(2-(hydroxy)phenyl)pentyl)aminocarbonylmethyl]phenoxy]-2-methylpropanoic acid]
92	CC(C)CC(NC(=O)Cc1ccc(OC(C(=O)O)C(C)C)cc1)c1ccccc1N1CCCCC1 (stereo not drawn) [Compound 26, 2-[4-[1-(3-methyl-1-(2-(1-piperidinyl)phenyl)butyl)aminocarbonylmethyl]phenoxy]-3-methylbutanoic acid]
93	CC(C)CC(NC(=O)Cc1ccc(OC(C)C(=O)O)cc1)c1ccccc1N1CCCCC1 (stereo not drawn) [Compound 24, 2-[4-[1-(3-methyl-1-(2-(1-piperidinyl)phenyl)butyl)aminocarbonylmethyl]phenoxy]propanoic acid]
76	CC(C)CC(NC(=O)Cc1ccc(OC(C)(C)C(=O)O)cc1)c1ccccc1N1CCCC1 (stereo not drawn) [Compound 16, 2-[4-[1-(3-methyl-1-(2-(1-pyrrolidinyl)phenyl)butyl)aminocarbonylmethyl]phenoxy]-2-methylpropanoic acid]
46	CC(C)(Oc1ccc(CC(=O)NC(Cc2ccccc2)c2ccccc2N2CCCCC2)cc1)C(=O)NS(C)(=O)=O (stereo not drawn) [Compound 62, N-[methylsulfonyl]-2-[4-[1-(2-phenyl-1-(2-(1-piperidinyl)phenyl)ethyl)aminocarbonylmethyl]phenoxy]-2-methylpropanamide]
85	CCN(CC)c1ccccc1C(CC(C)C)NC(=O)Cc1ccc(OC(C)(C)C(=O)O)cc1 (stereo not drawn) [Compound 20, 2-[4-[1-(3-methyl-1-(2-(diethylamino)phenyl)butyl)aminocarbonylmethyl]phenoxy]-2-methylpropanoic acid]
94	CC(C)CC(NC(=O)Cc1ccc(OC(C)(C)C(=O)NS(C)(=O)=O)cc1)c1ccccc1N1CCCCC1 (stereo not drawn) [Compound 58, N-[methylsulfonyl]-2-[4-[1-(3-methyl-1-(2-(1-piperidinyl)phenyl)butyl)aminocarbonylmethyl]phenoxy]-2-methylpropanamide]
75	CC(C)(Oc1ccc(CC(=O)NC(c2ccccc2)c2ccccc2N2CCCCC2)cc1)C(=O)O (stereo not drawn) [Compound 3, 2-[4-[1-(1-phenyl-1-(2-(1-piperidinyl)phenyl)methyl)aminocarbonylmethyl]phenoxy]-2-methylpropanoic acid]
49	CC(C)CC(NC(=O)Cc1ccc(OC(C)(C)C(=O)O)c(Cl)c1)c1ccccc1N1CCCCC1 (stereo not drawn) [Compound 56, 2-[2-chloro-4-[1-(3-methyl-1-(2-(1-piperidinyl)phenyl)butyl)aminocarbonylmethyl]phenoxy]-2-methylpropanoic acid]
47	CC(C)(Oc1ccc(CC(=O)NC(c2ccccc2N2CCCCC2)C2CCCCC2)cc1)C(=O)O (stereo not drawn) [Compound 6, 2-[4-[1-(1-cyclohexyl-1-(2-(1-piperidinyl)phenyl)methyl)aminocarbonylmethyl]phenoxy]-2-methylpropanoic acid]
15	CC(C)CC(NC(=O)Cc1cccc(OC(C)(C)C(=O)O)c1)c1ccccc1N1CCCCC1 (stereo not drawn) [Compound 29, 2-[3-[1-(3-methyl-1-(2-(1-piperidinyl)phenyl)butyl)aminocarbonylmethyl]phenoxy]-2-methylpropanoic acid]
69	CC(C)CC(NC(=O)Cc1ccc(OC(C)(C)C(=O)O)cc1)c1ccccc1N1CCCCCC1 (stereo not drawn) [Compound 18, 2-[4-[1-(3-methyl-1-(2-(1-hexamethyleneimino)phenyl)butyl)aminocarbonylmethyl]phenoxy]-2-methylpropanoic acid]
95	CC(C)CC(NC(=O)Cc1ccc(OC(C(=O)O)c2ccccc2)cc1)c1ccccc1N1CCCCC1 (stereo not drawn) [Compound 27, 2-[4-[1-(3-methyl-1-(2-(1-piperidinyl)phenyl)butyl)aminocarbonylmethyl]phenoxy]-2-phenylacetic acid]
12	CCCCC(NC(=O)Cc1ccc(OC(C)(C)C(=O)O)cc1)c1ccccc1S(=O)(=O)c1ccccc1 (stereo not drawn) [Compound 41, 2-[4-[1-(1-(2-(phenylsulfonyl)phenyl)pentyl)aminocarbonylmethyl]phenoxy]-2-methylpropanoic acid]
22	CCCCC(c1ccccc1N1CCCCC1)N(CC(C)C)C(=O)Cc1ccc(OC(C)(C)C(=O)O)cc1 (stereo not drawn) [Compound 35, 2-[4-[N-isobutyl-N-(1-(2-(1-piperidinyl)phenyl)pentyl)aminocarbonylmethyl]phenoxy]-2-methylpropanoic acid]
97	CC(C)CC(NC(=O)Cc1ccc(OCC(=O)O)cc1)c1ccccc1N1CCCCC1 (stereo not drawn) [Compound 23, 2-[4-[1-(3-methyl-1-(2-(1-piperidinyl)phenyl)butyl)aminocarbonylmethyl]phenoxy]acetic acid]
32	CC(C)(Oc1ccc(CC(=O)NC(CCc2ccccc2)c2ccccc2N2CCCCC2)cc1)C(=O)O (stereo not drawn) [Compound 51, 2-[4-[1-(3-phenyl-1-(2-(1-piperidinyl)phenyl)propyl)aminocarbonylmethyl]phenoxy]-2-methylpropanoic acid]
